{"source": "patent US9289462B2", "about": "“Method for medical treatment utilizing glutathione” (priority 2008, dated 2016)", "key": {"[1]": {"system": "patients with acute pancreatitis", "conditions": "previous studies, cited from earlier work; for benefit in patients with acute pancreatitis: administration of n-acetylcysteine together with the antioxidants selenium and vitamin C"}, "[2]": {"system": "amylase, lipase and C-reactive protein levels", "conditions": "Example 3; for CRP: Normal 0-7.48; for Lipase: Normal 8-57; for Amylase: Normal 30-110", "text": "(§1) A person had experienced 5 weeks of increasing back and abdominal pain prior to first dose of intravenous L-glutathione. […] The patient elected to undergo intravenous L-glutathione reduced therapy for pancreatitis."}, "[3]": {"system": "patient with back and abdominal pain, pancreatitis", "conditions": "for Pain Score: GSH (1 gm)", "text": "as §1"}, "[4]": {"system": "patient with acute pancreatitis, abdominal pain", "assay": "Example 2: pain score of a patient with acute pancreatitis after a single dose of intravenous reduced L-glutathione", "assay_type": "in vivo, human", "quoted_text": "(§3) The patient improved substantially over a several week period on nonspecific supportive therapy but continued to require pain medication intermittently."}, "[5]": {"system": "amylase and lipase levels", "conditions": "Example 2; for Lipase: Normal 8-57; for Amylase: Normal 30-110", "quoted_text": "as §3"}, "[6]": {"system": "amylase and lipase levels", "conditions": "Example 1; for Lipase: Normal 8-57; for Amylase: Normal 30-110", "text": "(§2) A patient who has experienced over 5 years of constant abdominal pain secondary to chronic pancreatitis is given intravenous reduced L-glutathione therapy."}, "[7]": {"system": "patient with constant abdominal pain secondary to chronic pancreatitis", "conditions": "for Pain Score: GSH (1 gm) IV", "text": "as §2"}, "[8]": {"conditions": "known value; cited from earlier work"}, "[9]": {"conditions": "Jun. 3, 2008 (date of first GSH dose)"}, "[10]": {"conditions": "May 22, 2008 (before first GSH dose of Jun. 3, 2008)"}, "[11]": {"conditions": "May 30, 2008 (before first GSH dose)"}, "[12]": {"conditions": "May 7, 2008 (date of GSH infusion)"}, "[13]": {"conditions": "Sep. 14, 2007 (before first GSH infusion of Sep. 28, 2007)"}, "[14]": {"conditions": "Sep. 28, 2007 (date of first GSH infusion)"}}, "note": "Where two headings read alike, the source gives them in different places."}
{"compound": "[Se]", "note": "[selenium]", "values": [{"measurement": "benefit in patients with acute pancreatitis", "setting": "[1]", "result": "failed to show any benefit"}]}
{"compound": "O=C1O[C@H]([C@@H](O)CO)C(O)=C1O", "note": "[vitamin C, reference compound]", "values": [{"measurement": "benefit in patients with acute pancreatitis", "setting": "[1]", "result": "failed to show any benefit"}]}
{"compound": "NC(CCC(=O)NC(CS)C(=O)NCC(=O)O)C(=O)O", "note": "(stereo not shown) [GSH, 2-amino-4-[[1-(carboxymethylcarbamoyl)-2-sulfanyl-ethyl]carbamoyl]butanoic acid]", "values": [{"measurement": "CRP", "setting": "[2]; [9]", "result": 7.84}, {"measurement": "Lipase", "setting": "[2]; [9]", "result": 112}, {"measurement": "Amylase", "setting": "[2]; [9]", "result": 95}, {"measurement": "CRP", "setting": "[2]; Jun. 5, 2008", "result": 9.11}, {"measurement": "Lipase", "setting": "[2]; Jun. 5, 2008", "result": 152}, {"measurement": "Amylase", "setting": "[2]; Jun. 5, 2008", "result": 128}, {"measurement": "Lipase", "setting": "[2]; Jun. 16, 2008", "result": 89}, {"measurement": "Amylase", "setting": "[2]; Jun. 16, 2008", "result": 75}, {"measurement": "CRP", "setting": "[2]; Jun. 25, 2008", "result": 3.97}, {"measurement": "Lipase", "setting": "[2]; Jun. 25, 2008", "result": 60}, {"measurement": "Amylase", "setting": "[2]; Jun. 25, 2008", "result": 64}, {"measurement": "Lipase", "setting": "[2]; [10]", "result": 150}, {"measurement": "Amylase", "setting": "[2]; [10]", "result": 105}, {"measurement": "Lipase", "setting": "[2]; [11]", "result": 150}, {"measurement": "Amylase", "setting": "[2]; [11]", "result": 124}, {"measurement": "amylase, lipase and C-reactive protein levels", "setting": "[2]; within a month of intravenous L-glutathione reduced therapy", "result": "reduction"}, {"measurement": "Pain Score", "setting": "[3]; Example 3, person, Jun. 3, 2008, pain medication hydrocodone", "result": "5 of 10"}, {"measurement": "Pain Score", "setting": "[3]; Example 3, Jun. 4, 2008, pain medication hydrocodone", "result": "0 of 10"}, {"measurement": "Pain Score", "setting": "[3]; Example 3, Jun. 5, 2008, pain medication hydrocodone", "result": "2.5 of 10"}, {"measurement": "Pain Score", "setting": "[3]; Example 3, Jun. 6, 2008, pain medication hydrocodone", "result": "4.5 of 10"}, {"measurement": "Pain Score", "setting": "[3]; Example 3, Jun. 9, 2008, pain medication hydrocodone", "result": "3 of 10"}, {"measurement": "Pain Score", "setting": "[3]; Example 3, Jun. 16, 2008, pain medication None", "result": "0 of 10"}, {"measurement": "Pain Score", "setting": "[3]; Example 3, Jun. 18, 2008, pain medication None", "result": "0 of 10"}, {"measurement": "Pain Score", "setting": "[3]; Example 3, Jun. 25, 2008, Back pain due to lifting furniture", "result": "2 of 10"}, {"measurement": "pain", "setting": "[3]; Example 3, within a month of intravenous L-glutathione reduced therapy", "result": "significant decrease in pain"}, {"measurement": "effect on multiple organ functions in patients with acute pancreatitis", "setting": "[1]; administration of glutathione", "result": "protective effect"}, {"measurement": "Pain Score", "setting": "[4]; Example 2, person, GSH (1 gm) IV, May 7, 2008, pain medication hydrocodone", "result": "5 of 10"}, {"measurement": "Pain Score", "setting": "[4]; Example 2, May 9, 2008, follow up visit only, no infusion given, pain medication None", "result": "0 of 10"}, {"measurement": "pain and enzyme levels", "setting": "[4]; Example 2, single dose of intravenous reduced L-glutathione", "result": "responded to a single dose"}, {"measurement": "Lipase", "setting": "[5]; [12]", "result": 161}, {"measurement": "Amylase", "setting": "[5]; [12]", "result": 115}, {"measurement": "Lipase", "setting": "[5]; May 9, 2008", "result": 132}, {"measurement": "Amylase", "setting": "[5]; May 9, 2008", "result": 105}, {"measurement": "Lipase", "setting": "[6]; Jun. 27, 2008", "result": 30}, {"measurement": "Amylase", "setting": "[6]; Jun. 27, 2008", "result": 68}, {"measurement": "Lipase", "setting": "[6]; Nov. 5, 2007", "result": 39}, {"measurement": "Amylase", "setting": "[6]; Nov. 5, 2007", "result": 62}, {"measurement": "Lipase", "setting": "[6]; [13]", "result": 108}, {"measurement": "Amylase", "setting": "[6]; [13]", "result": 90}, {"measurement": "Lipase", "setting": "[6]; [14]", "result": 64}, {"measurement": "Amylase", "setting": "[6]; [14]", "result": 79}, {"measurement": "amylase and lipase levels", "setting": "[6]; during the course of treatment", "result": "significantly reduced"}, {"measurement": "Pain Score", "setting": "[7]; Example 1, person, Sep. 28, 2007, pain medication hydrocodone", "result": "8 of 10"}, {"measurement": "Pain Score", "setting": "[7]; Example 1, Dec. 10, 2007, pain medication propoxyphene", "result": "1 of 10"}, {"measurement": "Pain Score", "setting": "[7]; Example 1, Dec. 17, 2007, pain medication None", "result": "0 of 10"}, {"measurement": "Pain Score", "setting": "[7]; Example 1, Jan. 3, 2008, pain medication None", "result": "0 of 10"}, {"measurement": "Pain Score", "setting": "[7]; Example 1, Nov. 12, 2007, pain medication propoxyphene", "result": "1 of 10"}, {"measurement": "Pain Score", "setting": "[7]; Example 1, Oct. 10, 2007, pain medication propoxyphene", "result": "5 of 10"}, {"measurement": "Pain Score", "setting": "[7]; Example 1, Oct. 29, 2007, pain medication propoxyphene", "result": "2 of 10"}, {"measurement": "Pain reported by the patient", "setting": "[7]; Example 1, within four months of initiating reduced L-glutathione therapy", "result": "absence of pain"}]}
{"compound": "CC(C)OC(=O)CNC(=O)[C@H](CS)NC(=O)CC[C@H](N)C(=O)O", "note": "[glutathione isopropyl ester]", "values": [{"measurement": "toxicity LD 50 value", "setting": "[8]", "result": "about 5.3 g/kg"}]}
{"compound": "COc1ccc2c3c1O[C@H]1C(=O)CC[C@H]4[C@@H](C2)N(C)CC[C@]314", "note": "[hydrocodone, reference compound]", "values": [{"measurement": "pain", "setting": "[4]; Example 2, May 7, 2008, pain described as 10/10, relieved with hydrocodone taken at home, before GSH", "result": "5 /10"}]}
{"compound": "CC(=O)N[C@@H](CS)C(=O)O", "note": "[n-acetylcysteine, reference compound]", "values": [{"measurement": "benefit in patients with acute pancreatitis", "setting": "[1]", "result": "failed to show any benefit"}]}
